The results in this text go back to US10077289B2, “Cyclosporins modified on the MeBmt sidechain by heterocyclic rings” (priority 2015, dated 2018).

The structures appear in SMILES notation. Values after ≈ are worked out from the molar mass of the structure shown. Where two headings read alike, the source gives them in different places.

Broadly, the Ki is the equilibrium dissociation constant of an inhibitor or competing ligand from its target. What is called IC50 is the midpoint of a concentration-inhibition curve.

Data set [1] concerns the target Human recombinant cyclophilin A (Cyp A) (Homo sapiens (Human), UniProt P62937). Description: Protease-free PPIase assay. As for the experimental part:
Protease-Free PPIase Assay
The protease-free PPIase assay measures the rate of cis to trans conversion of a peptide substrate catalyzed by the enzyme cyclophilin A. Addition of a cyclophilin A inhibitor (e.g., a test compound) slows the catalyzed rate and a Ki value is obtained.
35 mM HEPES pH 7.8, filtered through a 0.2 μm filter. 50 μM DTT was added prior to use each day and then the buffer was stored on ice.
Human recombinant cyclophilin A (Cyp A) (Sigma C3805) enzyme was diluted to 1 μM with enzyme dilution buffer (20 mM HEPES pH 7.8, 40% glycerol, 50 μM DTT and 1 μM BSA) and stored at −20° C.
Succinimide-Ala-Ala-Pro-Phe-p-nitroanilide (SUC-AAPF-pNA) (from Bachem AG, L-1400), 20 mg/ml prepared in 0.5 M LiCl in trifluoroethanol.
The temperature is monitored by the use of a temperature probe. To prevent UV degradation of test compounds, the light below 290 nm was blocked using a glass slide in the light path. 1.5 ml of the assay buffer was put into a 3 ml quartz cuvette and cooled to 10.0±0.1° C. while stirring (vigorous but not so fast as to produce cavitation). The inhibitor was diluted in 100% DMSO, and then added to the assay to a maximum final concentration of 0.5% DMSO in the assay. A blank spectrum was obtained, then 3 μL of enzyme was added (2 nM final concentration) and then 3 μL substrate (60 μM final concentration) added. The absorbance was measured at 330 nm for 300 s or 500 s for blank runs (NOTE: the substrate must be added in one quick injection and the measurements started immediately to minimize mixing errors).
A first order rate equation was fitted to the absorbance data, for each concentration of inhibitor, to obtain the rate constant (the first 10 to 15 seconds were excluded as mixing causes errors in this portion of curve). The catalytic rate was calculated from the enzymatic rate constant minus the background rate constant. An exponential curve was generated using the catalytic rate constants versus the inhibitor concentration to obtain the Ki value for the inhibitor. The Ki value is indicative of the binding affinity between the test compound and cyclophilin A.

Data set [2] has as its target calcineurin/cyclophilin A (Homo sapiens (Human), UniProt P62937+P63098+Q08209). Description: Calcineurin Phosphatase (CaN) Assay (+CypA). The following applies: in the presence of Cyp A, 1:1 complex with inhibitor; read-out: Calcineurin Phosphatase (CaN) Assay (+CypA) IC50. Type of data set: biochemical. An excerpt:
Calcineurin Phosphatase (CaN) Assay
The calcineurin phosphatase assay is a means for estimating the immunosuppressive potential of a test compound. Calcineurin is a serine-threonine protein phosphatase that on activation dephosphorylates members of the nuclear factor of activated T cells (NFAT), which are important in T lymphocyte activation.
To investigate the immunosuppressive potential of exemplary compounds of Formula I, which are cyclosporin analogs, their ability to inhibit calcineurin activity was measured in the presence and absence of Cyp A.
The CaN assay kit used is based on a colorimetric assay for measuring calcineurin phosphatase activity, and it is commercially available (Enzo Life Sciences and Calbiochem). Calmodulin is also required for calcineurin activity and RII phosphopeptide is used as an efficient peptide substrate for calcineurin. […] The detection of free phosphate released is based on the classic Malachite green assay.
Enzo Life Sciences CaN Assay Kit: BML-AK804
Malachite Green: BIOMOL Green™ reagent
Calmodulin (Human, recombinant): was thawed on ice, diluted 1:50 with 2× assay buffer, and then stored on ice.
Calcineurin: was thawed quickly, stored on ice immediately, diluted 1:12.5 with 1× assay buffer, and then stored on ice.
R-II Substrate: 915 μL ultrapure water (UPW) was added to the 1.5 mg vial substrate to give a final concentration of 0.75 mM.
Inhibitors: 2.5 mM inhibitor in 100% DMSO.
Cyp A: recombinant human CypA (Sigma C3805), 1 mg/ml; Recombinant 6-His tagged CypA prepared by the University of Edinburgh was also used.
Inhibitor dilutions: inhibitor compounds were diluted in UPW in polypropylene low-binding 96 well plates at 5× the final assay concentration.
Assay Setup: using the half area 96 well plates supplied with the kit, 10 μl UPW was added to duplicate wells to provide the non-inhibited control. 10 μl of the inhibitor or the inhibitor/Cyp A complex was added to the appropriate sample wells. 25 μl of the 2× assay buffer with CaM was added to all wells, then 5 μl of CaN was added to all wells (40 U per well final concentration) except duplicate ‘no calcineurin blank’ wells to which 5 μL 1× assay buffer was added. The assay plate was placed in an oven at 30° C. for 15 minutes to equilibrate to the reaction temperature. The reaction was started by the addition of 10 μl RII-peptide (0.15 mM final concentration). The reaction was allowed to proceed at 30° C. for a time period in which the reaction is linear for about 60 minutes. The reaction was then terminated by adding 100 μl of the Malachite Green reagent. The color was allowed to develop for 15-30 minutes at room temperature before the absorbance at 620 nm was measured using a plate reader (Molecular Devices—SpectraMax M5). The data were analyzed by subtracting ‘no Calcineurin blank’ from all the absorbance readings and plotting the background corrected absorbances against Log10 inhibitor concentration. A sigmoidal-dose response curve was fitted to the data using GraphPad Prism Software.
It exerts its immunosuppressive activity by binding to cyclophilin A to form a complex, which then binds to calcineurin and thereby inhibits calcineurin activity.

Data set [3] is described as follows: Water Solubility Assay (measured in pH 7.8 buffer). Type of data set: physicochemical. The settings on record: 25 °C, kinetic from dmso stock. As for the experimental part: Water Solubility Assay (Measured in pH 7.8 Buffer)
The aqueous solubility of a compound of Formula I in buffer (pH 7.8) was measured by recording the onset of precipitation of the compound as a function of increasing concentration. The onset of precipitation, if it occurred, was detected by an increase in absorbance at 650 nm.
Assay Buffer: 35 mM HEPES pH 7.8
Stock solutions of Control and Test Compounds: 10 mM in 100% DMSO.
10 mM stock solutions of control and test compounds were prepared in 100% DMSO.
Assay buffer (247.5 μl) was placed into flat bottomed transparent 96-well plate. For blank samples DMSO (2.5 μl) was added. For test and control samples 2.5 μl of the appropriate DMSO dilution stocks were added to the appropriate well. All test and control compounds were performed in triplicate.
The plates were sealed with adhesive plate seal and shaken at 250 rpm at 25° C. for 18 h on a plate shaker. After incubation the plate seals were taken off and any bubbles observed in wells removed. The plates were read on a SpectraMaxM5 with a 5 s pre-shake at 650 nm. Data files were transferred to the appropriate worksheet and the solubility range of the compounds was calculated from the data. The values shown in the Tables indicate the concentration in μM (micromolar) at which the compound remains in solution.

Setting [4] is: read-out: Protease-free PPIase Assay Ki, human recombinant Cyp A, 10 °C.
[5] abbreviates: 35 mM HEPES buffer pH 7.8, aqueous buffer, 35 mM HEPES pH 7.8, 1% DMSO, 18 h, read-out: Water Solubility Assay, concentration at which the compound remains in solution.

As to `CC[C@H]1NC(=O)[C@@H]([C@H](O)[C@H](C)CCCc2ccccn2)N(C)C(=O)[C@@H](C(C)C)N(C)C(=O)[C@@H](CC(C)C)N(C)C(=O)[C@@H](CC(C)C)N(C)C(=O)[C@H](C)NC(=O)[C@@H](C)NC(=O)[C@@H](CC(C)C)N(C)C(=O)[C@@H](C(C)C)NC(=O)[C@H](CC(C)C)N(C)C(=O)[C@@H](SC)N(C)C1=O` [Compound 35], the Ki in data set [1] (setting [4]) is 4.4 nM. Besides, in data set [2], the IC50 turned out to be 1600 nM. In data set [3] (pH 7.8, aqueous buffer), the solubility at 18 h is 75 to 100 µM (≈ 98.5 to 131 µg/mL).

Regarding `CC[C@H]1NC(=O)[C@@H]([C@H](O)[C@H](C)Cc2nccn2CCN(C)C)N(C)C(=O)[C@@H](C(C)C)N(C)C(=O)[C@@H](CC(C)C)N(C)C(=O)[C@@H](CC(C)C)N(C)C(=O)[C@H](C)NC(=O)[C@@H](C)NC(=O)[C@@H](CC(C)C)N(C)C(=O)[C@@H](C(C)C)NC(=O)[C@H](CC(C)C)N(C)C(=O)[C@@H](C)N(C)C1=O` [Compound 4, [(2S,3R,4R)-5-(1-(N,N-Dimethyl-ethyl)-1H-imidazol-2-yl)-3-hydroxy-4-methyl-2-(methylamino)pentanoic acid]^1 [(R)-methyl-Sar]^3 cyclosporin A], the Ki in data set [1] (setting [4]) turned out to be 5.1 nM. The IC50 in data set [2] was 6900 nM. Further, the solubility at 18 h in data set [3] (setting [5]) is above 100 µM.

With `CC[C@H]1NC(=O)[C@@H]([C@H](O)[C@H](C)CCCc2ccncc2)N(C)C(=O)[C@@H](C(C)C)N(C)C(=O)[C@@H](CC(C)C)N(C)C(=O)[C@@H](CC(C)C)N(C)C(=O)[C@H](C)NC(=O)[C@@H](C)NC(=O)[C@@H](CC(C)C)N(C)C(=O)[C@@H](C(C)C)NC(=O)[C@H](CC(C)C)N(C)C(=O)[C@@H](COC)N(C)C1=O` [Compound 33], the Ki in data set [1] stood at 3.1 nM. For the same molecule, in data set [2], the IC50 was determined as 2390 nM. In data set [3] (pH 7.8, aqueous buffer), the solubility at 18 h fell in the range of 75 to 100 µM (≈ 98.4 to 131 µg/mL).

For `CC[C@H]1NC(=O)[C@@H]([C@H](O)[C@H](C)Cc2nccn2C)N(C)C(=O)[C@@H](C(C)C)N(C)C(=O)[C@@H](CC(C)C)N(C)C(=O)[C@@H](CC(C)C)N(C)C(=O)[C@H](C)NC(=O)[C@@H](C)NC(=O)[C@@H](CC(C)C)N(C)C(=O)[C@@H](C(C)C)NC(=O)[C@H](CC(C)C)N(C)C(=O)[C@@H](C)N(C)C1=O` [Compound 1, [(2S,3R,4R)-3-Hydroxy-4-methyl-2-(methylamino)-5-(1-methyl-1H-imidazol-2-yl)-pentanoic acid]^1 [(R)-methyl-Sar]^3 cyclosporin A], the Ki in data set [1] was 15 nM. Moreover, the IC50 in data set [2] was found to be 2700 nM. This molecule showed a solubility at 18 h in data set [3] (pH 7.8, aqueous buffer) of 75 to 100 µM (≈ 94.3 to 126 µg/mL).

Take `CC[C@H]1NC(=O)[C@@H]([C@H](O)[C@H](C)Cc2nccn2CCN2CCCC2)N(C)C(=O)[C@@H](C(C)C)N(C)C(=O)[C@@H](CC(C)C)N(C)C(=O)[C@@H](CC(C)C)N(C)C(=O)[C@H](C)NC(=O)[C@@H](C)NC(=O)[C@@H](CC(C)C)N(C)C(=O)[C@@H](C(C)C)NC(=O)[C@H](CC(C)C)N(C)C(=O)[C@@H](C)N(C)C1=O` [Compound 3, [(2S,3R,4R)-3-Hydroxy-4-methyl-2-(methylamino)-5-(1-(N-pyrrolidinyl-ethyl)-1H-imidazol-2-yl)pentanoic acid]^1 [(R)-methyl-Sar]^3 cyclosporin A]: the Ki in data set [1] (setting [4]) worked out at 8.6 nM. The IC50 in data set [2] was above 10000 nM. In data set [3] (setting [5]), the solubility at 18 h was above 100 µM.

Regarding `CC[C@H]1NC(=O)[C@@H]([C@H](O)[C@H](C)Cc2nccn2Cc2ccccn2)N(C)C(=O)[C@@H](C(C)C)N(C)C(=O)[C@@H](CC(C)C)N(C)C(=O)[C@@H](CC(C)C)N(C)C(=O)[C@H](C)NC(=O)[C@@H](C)NC(=O)[C@@H](CC(C)C)N(C)C(=O)[C@@H](C(C)C)NC(=O)[C@H](CC(C)C)N(C)C(=O)[C@@H](C)N(C)C1=O` [Compound 5, [(2S,3R,4R)-3-Hydroxy-4-methyl-2-(methylamino)-5-(1-(pyridin-2-yl-methyl)-1H-imidazol-2-yl)-pentanoic acid]^1 [(R)-methyl-Sar]^3cyclosporin A], the Ki in data set [1] (setting [4]) is 4.1 nM. In addition, in data set [2], the IC50 amounted to 8600 nM. The solubility at 18 h in data set [3] (setting [5]) was above 100 µM.

As to `CC[C@H]1NC(=O)[C@@H]([C@H](O)[C@H](C)CCOCc2ccncc2)N(C)C(=O)[C@@H](C(C)C)N(C)C(=O)[C@@H](CC(C)C)N(C)C(=O)[C@@H](CC(C)C)N(C)C(=O)[C@H](C)NC(=O)[C@@H](C)NC(=O)[C@@H](CC(C)C)N(C)C(=O)[C@@H](C(C)C)NC(=O)[C@H](CC(C)C)N(C)C(=O)[C@@H](C)N(C)C1=O` [Compound 37, [(2S,3R,4R)-3-Hydroxy-4-methyl-2-(methylamino)-6-(pyridin-4-ylmethoxy)-hexanoic acid]^1 cyclosporin A], the Ki in data set [1] came out at 5.6 nM. Besides, the IC50 in data set [2] amounted to 5640 nM. Further, the solubility at 18 h in data set [3] (pH 7.8, aqueous buffer) was above 100 µM.

In the case of `CC[C@H]1NC(=O)[C@@H]([C@H](O)[C@H](C)CCCc2cn(C)cn2)N(C)C(=O)[C@@H](C(C)C)N(C)C(=O)[C@@H](CC(C)C)N(C)C(=O)[C@@H](CC(C)C)N(C)C(=O)[C@H](C)NC(=O)[C@@H](C)NC(=O)[C@@H](CC(C)C)N(C)C(=O)[C@@H](C(C)C)NC(=O)[C@H](CC(C)C)N(C)C(=O)[C@@H](C)N(C)C1=O` [Compound 20, [(2S,3R,4R)-3-Hydroxy-7-(1-methyl-1H-imidazol-4-yl)-4-methyl-2-(methylamino)heptanoic acid]^1 [(R)-methyl-Sar]^3 cyclosporin A], the Ki in data set [1] was 5.7 nM. In addition, in data set [2], the IC50 was above 10000 nM. Moreover, the solubility at 18 h in data set [3] (pH 7.8, aqueous buffer) is above 100 µM.
